Test results taken from article PMC6522510 (Nature Communications, 2019).
Read-outs that look alike come from different tables or passages of the source.

What was measured:
Assay in all cases: Secondary dose-response HTS, Cell Titer Glo; call rule not given here
Format in all cases: cell-based, human
MOLM-13 = conditions: MOLM-13; for EC50: Homo sapiens
U937 = test system: U937
MV4-11 = conditions: MV4-11; for EC50: Homo sapiens
CMK = conditions: CMK
M07e = conditions: for EC50: Homo sapiens, M-07e
CMS = conditions: for average effective concentration, CMS: secondary high-throughput screen; for EC50: Homo sapiens
ML2 = conditions: ML-2; for EC50: Homo sapiens
CHRF288-11 = conditions: for EC50: Homo sapiens
[1] = secondary high-throughput screen
[2] = secondary high-throughput screen, U937
[3] = secondary high-throughput screen, M07e
[4] = secondary high-throughput screen, CHRF288-11

SMILES | average effective concentration, MOLM-13 (MOLM-13; [1]) | average effective concentration, U937 (U937; [2]) | average effective concentration, MV4-11 (MV4-11; [1]) | average effective concentration, CMK (CMK; [1]) | average effective concentration, M07e (M07e; [3]) | average effective concentration, CMS (CMS) | average effective concentration, ML-2 (ML2; [1]) | average effective concentration, CHRF288-11 (CHRF288-11; [4]) | other results
Cc1ccc(C(=O)COC(=O)c2cccc(NC(=O)c3ccc([N+](=O)[O-])cc3[N+](=O)[O-])c2)cc1 [FM19G11] | Inactive | Inactive | Inactive | Inactive | Inactive | Inactive | Inactive | Inactive | 
Nc1[nH]nc2nnc(-c3c(-c4ccccc4)nn4ccccc34)cc12 [FR 180204] | Inactive | Inactive | Inactive | Inactive | Inactive | Inactive | Inactive | Inactive | 
CSCC[C@H](NC(=O)[C@H](Cc1ccccc1)NC[C@@H](NC[C@@H](N)CS)C(C)C)C(=O)O [FTASE INHIBITOR I] | Inactive | Inactive | Inactive | Inactive |  | Inactive | Inactive | Inactive | average effective concentration, M07e (M07e; secondary high-throughput screen, […]): Inactive
COC(=O)[C@H](CCSC)NC(=O)c1ccc(NC[C@@H](N)CS)cc1-c1ccccc1 [FTI-277] | Inactive | Inactive | Inactive | Inactive | Inactive | Inactive | Inactive | Inactive | 
N[C@H](CCC(=O)N[C@@H](Cc1c[nH]c2ccccc12)C(=O)O)C(=O)O [GOLOTIMOD] | Inactive | Inactive | Inactive | Inactive | Inactive | Inactive | Inactive | Inactive | 
CNC(=O)c1c(F)cccc1Nc1nc(Nc2cc3c(cc2OC)CCN3C(=O)CN(C)C)nc2[nH]ccc12 [GSK1838705A] | Inactive |  | Inactive |  | Inactive | Inactive | Inactive | Inactive | EC50 (U937; secondary high-throughput screen, U937, read-out: average effective concentration, U937): 6200 nM; EC50 (CMK; secondary high-throughput screen, read-out: average effective concentration, CMK): 5800 nM
COc1ncc(-c2ccc3nccc(-c4ccnnc4)c3c2)cc1NS(=O)(=O)c1ccc(F)cc1F [GSK-2126458] |  |  |  |  |  |  |  |  | EC50 (MOLM-13; secondary high-throughput screen, read-out: average effective concentration, MOLM-13): 940 nM; EC50 (U937; Homo sapiens, U-937, secondary high-throughput screen, U937, read-out: average effective concentration, U937): 1 nM; EC50 (MV4-11; secondary high-throughput screen, read-out: average effective concentration, MV4-11): 1 nM; EC50 (CMK; Homo sapiens, read-out: average effective concentration, CMK): 1 nM; EC50 (M07e; secondary high-throughput screen, M07e, read-out: average effective concentration, M07e): 5600 nM; EC50 (CMS; HTS, read-out: average effective concentration, CMS): 40 nM; EC50 (ML2; secondary high-throughput screen, read-out: average effective concentration, ML-2): 1 nM; EC50 (CHRF288-11; HTS, secondary high-throughput screen, CHRF288-11, read-out: average effective concentration, CHRF288-11): 1300 nM
O=C1Nc2ccc(I)cc2/C1=C/c1cc(Br)c(O)c(Br)c1 [GW 5074] | Inactive | Inactive | Inactive | Inactive | Inactive | Inactive | Inactive | Inactive | 
CC(C)=CCC[C@]1(C)C=Cc2c(O)c3c(c(CC=C(C)C)c2O1)O[C@]12C(=C[C@@H]4C[C@H]1C(C)(C)O[C@@]2(C/C=C(/C)C(=O)O)C4=O)C3=O [Gambogic acid, reference compound] |  |  |  |  |  |  |  |  | EC50 (MOLM-13; secondary HTS, 72 h, average of triplicate, read-out: EC50 MOLM-13): 190 nM; EC50 (U937; Homo sapiens, U-937, secondary HTS, 72 h, average of triplicate, read-out: EC50 U937): 190 nM; EC50 (MV4-11; secondary HTS, 72 h, average of triplicate, read-out: EC50 MV4-11): 170 nM; EC50 (CMK; Homo sapiens, secondary HTS, 72 h, average of triplicate, read-out: EC50 CMK): 360 nM; EC50 (M07e; secondary HTS, 72 h, average of triplicate, read-out: EC50 M07e): 240 nM; EC50 (CMS; secondary HTS, 72 h, average of triplicate, read-out: EC50 CMS): 260 nM; EC50 (ML2; secondary HTS, 72 h, average of triplicate, read-out: EC50 ML2): 150 nM; EC50 (CHRF288-11; secondary HTS, 72 h, average of triplicate, read-out: EC50 CHRF288-11): 220 nM
